In general, Ki refers to a measure of affinity in units of concentration, obtained from inhibition or displacement.

Each structure is given as a SMILES string. Active and inactive are the calls of the source.

What all share (format): functional
Test [1] has as its target Phosphorylase b kinase gamma catalytic chain, liver/testis isoform (Homo sapiens, UniProt P15735).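 Also: PHKG2 measured as one member of a kinome-wide kinase panel.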
The target of test [2] is Serine/threonine-protein kinase PLK3 (Homo sapiens, UniProt Q9H4B4).
The target in test [3] is Serine/threonine-protein kinase 17A (Homo sapiens, UniProt Q9UEE5).
Sequence of Serine/threonine-protein kinase 17A (Q9UEE5 whole entry): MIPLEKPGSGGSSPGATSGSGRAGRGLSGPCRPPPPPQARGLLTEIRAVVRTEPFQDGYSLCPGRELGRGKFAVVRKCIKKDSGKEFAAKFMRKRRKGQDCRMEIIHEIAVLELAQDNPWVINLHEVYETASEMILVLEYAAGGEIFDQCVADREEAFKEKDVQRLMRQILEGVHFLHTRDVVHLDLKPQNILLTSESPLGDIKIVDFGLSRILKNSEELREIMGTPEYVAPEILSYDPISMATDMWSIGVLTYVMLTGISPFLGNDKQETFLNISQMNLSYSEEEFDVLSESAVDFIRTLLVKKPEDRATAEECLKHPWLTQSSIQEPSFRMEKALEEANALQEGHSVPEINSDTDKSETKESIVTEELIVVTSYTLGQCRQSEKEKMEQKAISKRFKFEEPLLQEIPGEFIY
Test [4] addresses MAP kinase-activated protein kinase 5 (Homo sapiens, UniProt Q8IW41).
Test [5] has as its target Cell division cycle 7-related protein kinase (Homo sapiens, UniProt O00311).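 Also: value obtained from a kinome-wide kinase panel.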
Test [6] concerns the target Mitogen-activated protein kinase 9 (Homo sapiens, UniProt P45984).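 Also: value from a kinome panel profiling assay, MAPK9 panel entry.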
Test [7] has as its target Testis-specific serine/threonine-protein kinase 1 (Homo sapiens, UniProt Q9BXA7).
Test [8] concerns the target Homeodomain-interacting protein kinase 2 (Homo sapiens, UniProt Q9H2X6).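 Also: measured within a kinome-wide kinase profiling panel, HIPK2 being one panel member.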
Test [9] has as its target MAP/microtubule affinity-regulating kinase 3 (Homo sapiens, UniProt P27448).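 Also: MARK3 affinity measured as one member of a kinome panel.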
Test [10] has as its target Mitogen-activated protein kinase kinase kinase kinase 2 (Homo sapiens, UniProt Q12851).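 Also: measured as one member of a kinome-wide kinase panel, with MAP4K2 as the panel entry.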
Test [11] has as its target Dual specificity tyrosine-phosphorylation-regulated kinase 3 (Homo sapiens, UniProt O43781).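 Also: measured as one member of a broad kinase panel.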
The target of test [12] is Serine/threonine-protein kinase Chk1 (Homo sapiens, UniProt O14757).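 Also: measured as one member of a kinome-wide kinase profiling panel.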
The target of test [13] is Vascular endothelial growth factor receptor 2 (Homo sapiens, UniProt P35968).
In test [14] the target is Serine/threonine-protein kinase Nek4 (Homo sapiens, UniProt P51957).
Sequence of Serine/threonine-protein kinase Nek4 (P51957 whole entry): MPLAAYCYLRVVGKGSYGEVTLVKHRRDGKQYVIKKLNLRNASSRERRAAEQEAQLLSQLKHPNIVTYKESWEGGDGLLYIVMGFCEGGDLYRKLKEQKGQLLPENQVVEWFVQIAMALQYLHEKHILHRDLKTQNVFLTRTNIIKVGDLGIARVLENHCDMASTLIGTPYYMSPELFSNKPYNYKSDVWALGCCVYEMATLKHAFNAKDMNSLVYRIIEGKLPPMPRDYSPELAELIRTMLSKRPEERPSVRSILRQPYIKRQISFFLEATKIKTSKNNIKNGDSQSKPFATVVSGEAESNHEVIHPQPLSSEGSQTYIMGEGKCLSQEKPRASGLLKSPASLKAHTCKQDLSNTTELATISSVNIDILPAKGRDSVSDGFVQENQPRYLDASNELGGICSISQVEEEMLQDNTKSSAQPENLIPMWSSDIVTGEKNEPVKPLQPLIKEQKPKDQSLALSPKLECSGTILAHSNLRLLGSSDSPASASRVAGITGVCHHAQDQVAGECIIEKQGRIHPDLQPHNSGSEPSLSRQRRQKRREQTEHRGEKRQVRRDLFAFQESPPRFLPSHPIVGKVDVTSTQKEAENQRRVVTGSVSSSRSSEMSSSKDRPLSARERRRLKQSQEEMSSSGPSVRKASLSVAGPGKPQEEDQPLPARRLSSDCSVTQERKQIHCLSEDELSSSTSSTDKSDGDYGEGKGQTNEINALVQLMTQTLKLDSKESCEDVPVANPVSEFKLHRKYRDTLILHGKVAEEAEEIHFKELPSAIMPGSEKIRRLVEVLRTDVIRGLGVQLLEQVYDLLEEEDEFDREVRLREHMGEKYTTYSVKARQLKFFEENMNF
The target in test [15] is cAMP-dependent protein kinase catalytic subunit PRKX (Homo sapiens, UniProt P51817).
Sequence of cAMP-dependent protein kinase catalytic subunit PRKX (P51817 whole entry): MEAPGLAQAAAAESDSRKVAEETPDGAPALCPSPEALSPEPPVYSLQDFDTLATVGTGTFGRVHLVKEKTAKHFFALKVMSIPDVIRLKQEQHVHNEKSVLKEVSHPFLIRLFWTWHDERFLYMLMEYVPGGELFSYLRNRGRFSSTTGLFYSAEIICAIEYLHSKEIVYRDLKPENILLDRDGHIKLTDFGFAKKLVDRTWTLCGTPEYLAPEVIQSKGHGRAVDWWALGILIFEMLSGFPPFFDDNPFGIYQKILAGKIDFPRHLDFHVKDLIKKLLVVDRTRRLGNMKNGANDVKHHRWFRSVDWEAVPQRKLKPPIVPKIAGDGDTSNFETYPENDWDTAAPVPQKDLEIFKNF
Test [16] addresses Interleukin-1 receptor-associated kinase 4 (Homo sapiens, UniProt Q9NWZ3).
The target of test [17] is Serine/threonine-protein kinase Nek2 (Homo sapiens, UniProt P51955).
Test [18] addresses Dual specificity tyrosine-phosphorylation-regulated kinase 1A (Homo sapiens, UniProt Q13627).

Sequence of Mitogen-activated protein kinase kinase kinase kinase 2 (Q12851 whole entry): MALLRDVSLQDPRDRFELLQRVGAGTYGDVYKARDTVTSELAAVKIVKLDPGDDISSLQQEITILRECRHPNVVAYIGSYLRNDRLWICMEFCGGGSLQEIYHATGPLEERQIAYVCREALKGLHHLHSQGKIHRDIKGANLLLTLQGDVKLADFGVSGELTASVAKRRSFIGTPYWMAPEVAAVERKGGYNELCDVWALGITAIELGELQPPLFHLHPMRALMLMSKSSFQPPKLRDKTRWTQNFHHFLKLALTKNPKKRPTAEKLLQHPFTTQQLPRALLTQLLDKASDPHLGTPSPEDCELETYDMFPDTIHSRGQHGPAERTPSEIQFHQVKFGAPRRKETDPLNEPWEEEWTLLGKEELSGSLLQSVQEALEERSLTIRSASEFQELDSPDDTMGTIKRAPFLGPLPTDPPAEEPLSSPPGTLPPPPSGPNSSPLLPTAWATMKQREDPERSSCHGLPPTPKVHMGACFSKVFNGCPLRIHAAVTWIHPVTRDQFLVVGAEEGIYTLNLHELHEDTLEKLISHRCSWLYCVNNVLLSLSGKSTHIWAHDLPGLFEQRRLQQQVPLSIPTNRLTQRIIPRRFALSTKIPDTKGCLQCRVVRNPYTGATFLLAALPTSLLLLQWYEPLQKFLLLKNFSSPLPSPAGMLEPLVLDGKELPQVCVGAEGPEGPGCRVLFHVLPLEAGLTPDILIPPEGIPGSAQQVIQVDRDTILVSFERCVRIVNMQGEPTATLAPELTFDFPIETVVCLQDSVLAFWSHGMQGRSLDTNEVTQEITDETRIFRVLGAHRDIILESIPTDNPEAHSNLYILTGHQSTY
Sequence of Testis-specific serine/threonine-protein kinase 1 (Q9BXA7 whole entry): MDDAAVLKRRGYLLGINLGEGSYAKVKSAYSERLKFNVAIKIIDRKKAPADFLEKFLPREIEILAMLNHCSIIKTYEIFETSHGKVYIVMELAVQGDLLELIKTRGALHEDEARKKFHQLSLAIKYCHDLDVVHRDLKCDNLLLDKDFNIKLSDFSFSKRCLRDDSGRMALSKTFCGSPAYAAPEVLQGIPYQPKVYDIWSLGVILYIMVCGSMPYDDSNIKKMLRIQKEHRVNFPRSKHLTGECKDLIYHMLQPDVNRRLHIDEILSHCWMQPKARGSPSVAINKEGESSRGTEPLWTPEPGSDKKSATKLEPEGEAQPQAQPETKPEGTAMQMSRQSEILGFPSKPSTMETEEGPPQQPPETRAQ
Sequence of MAP kinase-activated protein kinase 5 (Q8IW41 whole entry): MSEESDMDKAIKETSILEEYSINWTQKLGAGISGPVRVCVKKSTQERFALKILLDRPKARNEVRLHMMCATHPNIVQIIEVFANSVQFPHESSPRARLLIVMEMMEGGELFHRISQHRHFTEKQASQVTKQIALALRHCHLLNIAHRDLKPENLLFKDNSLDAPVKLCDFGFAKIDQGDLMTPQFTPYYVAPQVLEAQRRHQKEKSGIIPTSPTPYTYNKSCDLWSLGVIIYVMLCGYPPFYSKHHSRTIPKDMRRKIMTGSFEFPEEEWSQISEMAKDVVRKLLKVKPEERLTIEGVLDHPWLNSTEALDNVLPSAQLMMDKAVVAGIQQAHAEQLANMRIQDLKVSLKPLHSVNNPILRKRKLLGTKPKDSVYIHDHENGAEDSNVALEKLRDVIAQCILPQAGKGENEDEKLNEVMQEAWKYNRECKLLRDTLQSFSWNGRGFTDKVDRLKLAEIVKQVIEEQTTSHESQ
Sequence of Phosphorylase b kinase gamma catalytic chain, liver/testis isoform (P15735 whole entry, canonical isoform): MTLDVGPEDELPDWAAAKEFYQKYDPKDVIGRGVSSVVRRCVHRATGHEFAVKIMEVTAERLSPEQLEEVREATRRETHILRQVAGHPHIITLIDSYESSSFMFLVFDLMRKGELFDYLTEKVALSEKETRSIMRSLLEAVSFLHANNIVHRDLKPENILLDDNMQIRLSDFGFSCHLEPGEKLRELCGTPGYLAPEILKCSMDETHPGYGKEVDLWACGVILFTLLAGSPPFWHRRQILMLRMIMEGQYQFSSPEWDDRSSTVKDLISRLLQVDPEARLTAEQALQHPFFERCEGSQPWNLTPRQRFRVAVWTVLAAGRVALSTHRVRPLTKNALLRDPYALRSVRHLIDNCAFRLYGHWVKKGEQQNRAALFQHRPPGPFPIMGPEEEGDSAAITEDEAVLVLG
Sequence of Homeodomain-interacting protein kinase 2 (Q9H2X6 whole entry): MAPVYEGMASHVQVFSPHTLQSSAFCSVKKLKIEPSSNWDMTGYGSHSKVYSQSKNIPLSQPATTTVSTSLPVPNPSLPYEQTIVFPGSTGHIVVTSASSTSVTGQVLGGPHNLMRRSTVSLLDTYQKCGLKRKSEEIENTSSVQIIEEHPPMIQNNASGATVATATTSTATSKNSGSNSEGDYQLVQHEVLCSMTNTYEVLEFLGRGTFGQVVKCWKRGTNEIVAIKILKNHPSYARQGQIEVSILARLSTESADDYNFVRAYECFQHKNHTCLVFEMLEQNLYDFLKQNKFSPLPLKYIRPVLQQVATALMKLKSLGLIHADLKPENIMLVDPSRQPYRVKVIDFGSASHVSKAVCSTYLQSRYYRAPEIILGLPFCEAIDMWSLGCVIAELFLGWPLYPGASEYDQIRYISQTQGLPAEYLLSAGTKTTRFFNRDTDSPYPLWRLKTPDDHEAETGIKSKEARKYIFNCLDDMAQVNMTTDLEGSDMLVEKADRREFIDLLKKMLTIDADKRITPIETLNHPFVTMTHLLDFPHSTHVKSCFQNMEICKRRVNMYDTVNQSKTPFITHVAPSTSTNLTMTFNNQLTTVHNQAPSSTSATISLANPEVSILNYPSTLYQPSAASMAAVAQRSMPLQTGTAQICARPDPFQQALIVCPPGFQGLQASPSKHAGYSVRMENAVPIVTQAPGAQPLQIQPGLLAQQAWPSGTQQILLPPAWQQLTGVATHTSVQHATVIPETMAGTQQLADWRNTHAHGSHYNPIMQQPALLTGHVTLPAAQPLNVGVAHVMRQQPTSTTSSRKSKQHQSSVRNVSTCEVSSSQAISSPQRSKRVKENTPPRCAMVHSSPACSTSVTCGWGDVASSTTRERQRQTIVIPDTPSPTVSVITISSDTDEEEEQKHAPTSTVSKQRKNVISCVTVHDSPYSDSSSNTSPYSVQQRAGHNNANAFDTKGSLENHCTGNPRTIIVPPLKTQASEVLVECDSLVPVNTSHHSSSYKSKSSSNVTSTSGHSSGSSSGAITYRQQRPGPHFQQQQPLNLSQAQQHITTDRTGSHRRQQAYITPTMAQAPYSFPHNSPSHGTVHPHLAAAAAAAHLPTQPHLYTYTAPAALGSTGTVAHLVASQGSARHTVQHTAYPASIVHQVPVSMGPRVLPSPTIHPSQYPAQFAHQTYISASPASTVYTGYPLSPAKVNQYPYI

Regarding `NC1CCCCC1Nc1nccc(-c2c[nH]c3ncccc23)n1` (stereo not drawn), the Ki in [1] is 158 nM (active); in test [2] it was > 7940 nM (inactive); in test [3] it was 794 nM (active); in test [4], > 1580 nM (inactive); in [5], 10 nM (active); in [6] it was > 3980 nM (inactive). In addition, the inhibition constant (Ki) in test [7] was 15.8 nM (active); in test [8] it was 25.1 nM (active); in [9], 158 nM (active); in [10], 79.4 nM (active); in [11] it was 126 nM (active); in test [12], 1260 nM (active). Moreover, the Ki in test [13] was 7940 nM (active); in test [14], 3160 nM (active); in [15] it was 31.6 nM (active); in test [16], 5.01 nM (active); in test [17], > 10000 nM (inactive); in test [18], 7.94 nM (active).

Values taken from ChEMBL document CHEMBL1201862, “PubChem BioAssay data set” (2004).
